Results published in a melting point compilation (Tetko et al.).

Row | SMILES | melting point [°C]
1 | CC(C)S(=O)(=O)Cc1cccc(N)c1 | 113 to 115
2 | Cc1c(-c2ccncc2)n[nH]c1N | 160 to 162
3 | O=C(O)CCOc1ccc(Oc2ccccc2)cc1 | 118 to 120
4 | Nc1ccccc1C(=O)NCC1CCCO1 (configuration not stated) | 78 to 80
5 | Cc1ccc(NS(=O)(=O)c2cc([N+](=O)[O-])ccc2NN)c(C)c1 | 165 to 167
6 | Cc1c[nH]c(=O)n1-c1ccccc1[N+](=O)[O-] | 209 to 211
7 | O=C(O)c1ccc(Cl)c(S(=O)(=O)Cl)c1 | 142 to 145
8 | O=C(NCc1cccnc1)OCC(F)(F)F | 45 to 47
9 | O=C1CCC(=O)N1c1ncc(Br)s1 | 150 to 152
10 | OCc1cnn(Cc2ccc(Br)cc2)c1 | 72 to 74
11 | O=C(O)c1nn(-c2ccccc2F)cc1O | 202 to 204
12 | Nc1nc2ccc(C(F)(F)F)cc2[nH]1 | 134 to 136
13 | CSc1nc(C)nc(C)c1C(=O)O | 223 to 225
14 | O=C(O)C1CCCN(C(=O)c2ccccc2)C1 (configuration not stated) | 189 to 191
15 | NC1(C(=O)O)Cc2ccccc2C1 | 254 to 256
16 | COC(=O)c1cc2ccc(Cl)cc2[nH]1 | 181 to 183
17 | O=C(Nc1cn[nH]c1)OCC(F)(F)F | 151 to 153
18 | O=C(O)c1cc2cccc(Br)c2o1 | 256 to 258
19 | O=C(Nc1ccc(S(=O)(=O)Cl)cc1)C(F)(F)F | 152 to 154
20 | COc1ccc(CCC(=O)O)cc1N | 121 to 123
21 | CC(C)(C)OC(=O)NCCCCCCC(=O)O | 44 to 46
22 | O=C(O)CCn1cc(Br)ccc1=O | 172 to 174
23 | CC(O)c1ccc(S(=O)(=O)Nc2ccc(C(=O)O)cc2)cc1 (configuration not stated) | 199 to 201
24 | Cc1ccc(-c2ccc(O)cc2)cc1 | 155 to 157

Row | SMILES | melting point [°C]
25 | O=C(CO)Nc1ccc(Oc2ccccc2)cc1 | 149 to 151
26 | CCOc1cc(C=O)cc(Br)c1OC | 52 to 54
27 | NC(=NO)C1CCCCC1 | 89 to 91
28 | COc1ccc(CNC(=O)c2c[nH]nc2N)cc1 | 196 to 198
29 | ClCc1ccc(-n2cccn2)cc1 | 57 to 59
30 | NC(C(=O)O)c1ccc(Cl)cc1Cl (configuration not stated) | 215 to 217
31 | NC(=O)c1cccc(OCC(=O)O)c1 | 206 to 208
32 | COc1ccc(-c2nn(-c3ccccc3)cc2CC(=O)O)cc1 | 161 to 163
33 | O=C(O)c1ccc(Cn2nnc3ccccc32)cc1 | 264 to 266
34 | O=C(O)c1cc(CCc2ccccc2)ccc1O | 156 to 158
35 | Nn1c(SCC(=O)O)nnc1C1CCCCC1 | 159 to 161
36 | CS(=O)(=O)OC1CCOC2(CCOCC2)C1 (configuration not stated) | 110 to 112
37 | Nc1nc2cc3c(cc2s1)OCCO3 | 203 to 205
38 | Cc1ccc(O)c(C(=O)Nc2ccncc2)c1 | 249 to 251
39 | Fc1cccc(F)c1-n1ccc(CCl)n1 | 39 to 41
40 | O=C(O)Cc1occc1C(=O)O | 204 to 206
41 | O=S(=O)(Cl)c1ccc2c(c1)COC2 | 98 to 100
42 | NNc1cccc(F)c1F | 61 to 63
43 | Cc1cc(C)c2c(N)c(C(=O)N3CCOCC3)sc2n1 | 147 to 149
44 | CC(=O)c1cccc(OCC(=O)N(C)C)c1 | 93 to 95
45 | O=C(O)CCNc1nccs1 | 171 to 173
46 | COc1cc(N)ccc1S(=O)(=O)Nc1ccc(Cl)cc1Cl | 199 to 201
47 | C[C@H](NC(=O)c1cccc([N+](=O)[O-])c1)C(=O)O | 159 to 161
48 | Nn1c(S)nnc1-c1cccnc1 | 190 to 192

Row | SMILES | melting point [°C]
49 | CCCN1C(=O)CNc2ccccc21 | 70 to 72
50 | CC(C)NC(=O)CC1(C(=O)O)CCCC1 | 139 to 141
51 | Nc1cccc(-c2nccn2CC(=O)O)c1 | 249 to 251
52 | COc1c(Cl)ccnc1O | 169 to 171
53 | COc1ccc(Br)c(C#N)c1 | 101 to 103
54 | Cn1ccnc1SCc1cccc(C(=O)O)c1 | 157 to 159
55 | O=C(O)c1ncccc1C(F)(F)F | 107 to 109
56 | Clc1nc(CN2CCCCC2)nc2scc(-c3ccccc3)c12 | 79 to 81
57 | COC(=O)c1cc(C)nc(SC)n1 | 116 to 118
58 | COc1nc2sccn2c1C=O | 130 to 132
59 | CC(N)C(O)c1c(F)cccc1F (configuration not stated) | 119 to 121
60 | Cc1ccc(-n2nc(C(=O)O)c3c2CCC3)c(F)c1 | 219 to 221
61 | O=C(O)CN1C(=O)CSc2ccccc21 | 151 to 153
62 | CN(C)S(=O)(=O)c1ccc(I)c(C(=O)O)c1 | 198 to 200
63 | Oc1ccc(I)nc1 | 185 to 187
64 | CC(C)C(NC(=O)COc1ccccc1)C(=O)O (configuration not stated) | 165 to 167
65 | CCOC(=O)C(=O)Nc1ccc([N+](=O)[O-])cc1 | 172 to 174
66 | COCCNS(=O)(=O)c1ccc(N)cc1 | 83 to 85
67 | O=C(O)c1cccnc1Nc1cc(F)ccc1F | 248 to 250
68 | CCOc1cc(Br)c([N+](=O)[O-])cc1OCC | 62 to 64
69 | CN(C)C(=O)Cc1ccc(N)cc1 | 97 to 99
70 | Nc1ccc(C(=O)NC2CCCCC2)cc1 | 175 to 177
71 | Cc1cc(C)c(Nc2nnc(S)s2)c(Cl)c1 | 198 to 200
72 | CC(C)(C)C(=O)C=Cc1ccc(Br)s1 | 44 to 46
